These results are taken from paper PMC6337631, “Effective Tetradentate Compound Complexes against Leishmania spp. that Act on Critical Enzymatic Pathways of These Parasites” (Molecules, 2018).

Assay [1] deals with Leishmania infantum promastigote forms. Description: Promastigote test (extracellular forms), L. infantum. It is filed as cell-based. As to conditions: 72 h, 100 µM to 1 µM, mean ± SD of four determinations. On the procedure:
(§1) Promastigote forms of three different Leishmania spp., L. donovani (MHOM/PE/84/LC26), L. infantum (MCAN/ES/2001/UCM-10) and L. braziliensis (MHOM/BR/1975/M2904), were cultured in vitro in Medium Trypanosomes Liquid (MTL) supplemented with 10% inactivated foetal calf serum (FCS) in an air atmosphere at 28 °C, in Roux flasks (Corning, Manassas, VA, USA) with a surface area of 75 cm^2, according to [33].
(§2) The compounds and the reference drug Glu were dissolved in DMSO (Panreac, Barcelona, Spain) and tested from 100 µM to 1 µM with 0.1% (v/v) DMSO final concentration in plates. Therefore, controls were prepared including 0.1% (v/v) of this component, as previously described.
(§3) Promastigote forms were collected in the exponential growth phase and seeded at 1 × 10^5 parasites/mL in 24-well microplates (Nunc, Naperville, IL, USA), after adding each compound at concentrations from 100 µM to 1 µM and cultured in 500 μL/well volumes at 28 °C. After 72 h incubation, the leishmanicidal activity was assessed using a Neubauer haemocytometric chamber in comparison with the control cultures. […] Each drug concentration was tested in triplicate in four separate determinations.

Assay [2] deals with Leishmania infantum amastigote forms. As to the kind of experiment: Amastigote test (intracellular forms in J774.2 macrophages), L. infantum. It is filed as cell-based. To be noted: 72 h, mean ± SD. On the procedure: as §1, §2
(§4) J774.2 macrophages were grown and seeded at a density of 1 × 10^4 cells/well in 24-well microplates (Nunc) with rounded coverslips on the bottom and cultured for 48 h in humidified 95% air, 5% CO2 atmosphere at 37 °C in Minimal Essential Medium (MEM) with 2 mM glutamine and 20% (v/v) inactivated FCS. Adherent macrophages were infected with metacyclic promastigotes in the stationary growth phase of L. donovani, L. infantum and L. braziliensis at a multiplicity of infection (MOI) ratio of 1:10 and maintained for 24 h. Non-phagocytosed parasites were removed by washing, and after addition of the testing compounds at concentrations from 100 µM to 1 µM, cultured in 500 μL/well volumes. Control cultures were also included. After 72 h incubation, leishmanicidal activity was assessed based on the number of amastigotes in treated and untreated cultures in methanol-fixed and Giemsa-stained preparations by analyzing 500 host cells distributed in randomly chosen microscopic fields. The leishmanicidal effect was calculated as described to determine the leishmanicidal activity in the promastigote forms. Each drug concentration was tested in triplicate in four separate determinations.

The test system of assay [3] is Leishmania braziliensis promastigote forms. Description: Promastigote test (extracellular forms), L. braziliensis. It is filed as cell-based. To be noted: 72 h, 100 µM to 1 µM, mean ± SD. The method, then:
as §1, §2, §3

Assay [4] has as its system Leishmania braziliensis amastigote forms. Description: Amastigote test (intracellular forms in J774.2 macrophages), L. braziliensis. It is filed as cell-based. As to conditions: 72 h, mean ± SD. On the procedure: as §1, §2, §4
Assay [5] relates to Leishmania donovani promastigote forms. Description: Promastigote test (extracellular forms), L. donovani. It is filed as cell-based. To be noted: 72 h, 100 µM to 1 µM, mean ± SD. The method, then: as §1, §2, §3
Assay [6] deals with Leishmania donovani amastigote forms. Description: Amastigote test (intracellular forms in J774.2 macrophages), L. donovani. In kind it is cell-based. To be noted: 72 h, mean ± SD. On the procedure: as §1, §2, §4
The subject of assay [7] is J774.2 murine macrophages. As to the kind of experiment: Cytotoxicity test on macrophages by flow cytometry. In kind it is cell-based, mouse. As to conditions: J774.2 macrophages, 72 h, read-out: Toxicity IC50 Macrophage. On the procedure:
as §2
The macrophage line J774.2 [European collection of cell cultures (ECACC) number 91051511] was derived in 1968 from a tumour in a female BALB/c mouse. Macrophages were grown in humidified 95% air, 5% CO2 atmosphere at 37 °C in Minimal Essential Medium (MEM) with 2 mM glutamine and 20% (v/v) inactivated FCS. The cytotoxicity test on macrophages was performed by Flow cytometry analysis according to a method previously described. Briefly, cells were seeded at a density of 5 × 10^4 cells/well in 24-well microplates (Nunc, Naperville, IL, USA). After 48 h incubation, the medium was removed, and fresh medium was added together with each test compound at concentrations from 100 µM to 1 µM and cultured in 500 μL/well volumes for 72 h. Thereafter, cells were recovered by centrifugation, and cell viability was determined by Flow cytometry (FACS Vantage flow cytometer, Becton Dickinson, San Jose, CA, USA) after incubating the cells with propidium iodide ([…]) and fluorescein diacetate (100 ng/mL). The percentage of viability was calculated in comparison with the control cultures. […] Each drug concentration was tested in triplicate in four separate determinations.
(In general: A flow cytometer gives signals particle by particle.)

Assay [8] has as its system Leishmania braziliensis infection of J774.2 macrophages. Description: Infectivity assay, L. braziliensis. It is filed as cell-based. To be noted: IC25 concentration; last day of the experiment (day 10). On the procedure: (§5) After the initial in vitro studies we were interested in finding out if the six most leishmanicidal compounds could also prevent the infection of host cells. For this reason, we conducted an assay in which the J774.2 macrophages were exposed to the metacyclic promastigotes and the compound at IC25 concentration at the same time. The propagation of the parasitic infection was determined by measuring the infection rate and the average number of amastigotes per macrophage cell present during the 10-day treatment period. In addition, the endocytic (short-time of infection) and infection (long-time of infection) indexes were calculated.
(§6) Adherent macrophages were grown, seeded and infected with metacyclic promastigotes as mentioned above. The compounds at IC25 concentrations (calculated using linear regression analysis from the Kc values of the concentrations employed) were added immediately after infection and incubation was performed for 12 h at 37 °C in humidified 95% air, 5% CO2 atmosphere. in humidified 95% air, 5% CO2 atmosphere at 37 °C Non-phagocytosed parasites and drugs were removed by washing, and then the infected cultures were grown for 10 days, adding fresh culture medium every 48 h, according to [35]. Amastigotes per macrophage count was determined in methanol-fixed and Giemsa-stained preparations as mentioned above every 48 h. […]

Assay [9] concerns Leishmania infantum infection of J774.2 macrophages. As to the kind of experiment: Infectivity assay, L. infantum. It is filed as cell-based. As to conditions: IC25 concentration; 10-day infectivity assay. The method, then: as §5, §6
The next assay addresses T1, human CuZn-SOD (Homo sapiens, UniProt P00441).
T1 construct: purchased Sigma Chemical Co. (St. Louis, MO, USA)
Description: SOD inhibition assay, human CuZn-SOD. It is filed as biochemical. As to conditions: assayed 100 µM to 0.1 µM; non-linear regression. On the procedure: The previous extraordinary results prompted us to evaluate the inhibitory effect of 3, 5–8 and 10 on the SOD activity. […]
Parasite cells were collected in the exponential growth phase by centrifugation (400g for 10 min). The pellet obtained after centrifugation was lysated by sonication, processed according to [38] and obtained the homogenate fraction which contained the parasite Fe-SOD. The protein content was quantified using the Sigma Bradford test, which uses BSA as a standard (no trace ability was certified for the BSA standard). Superoxide dismutase activities were determined using a method previously described, which measures the reduction in nitrobluetetrazolium (NBT) by superoxide ions. Human CuZn-SOD. Substrates used in these assays were obtained from Sigma Chemical Co. (St. Louis, MO, USA). Resulting data were analysed using the Newman−Keuls test.

Assay [10] relates to L. braziliensis promastigotes. As to the kind of experiment: Ultrastructural alterations by TEM, L. braziliensis. It is filed as cell-based, Leishmania braziliensis. As to conditions: 72 h at IC25 concentration. On the procedure: (§7) Parasites were cultured at a density of 5 × 10^5 cells/mL with medium containing the tested compounds at IC25 concentrations. After 72 h at 28 °C, the cultures were processed using a technique previously described and analysed by TEM (LIBRA 120 PLUS, Zeiss, Barcelona, Spain).

In assay [11] the test system is L. donovani promastigotes. As to the kind of experiment: Ultrastructural alterations by TEM, L. donovani. In kind it is cell-based, Leishmania donovani. To be noted: 72 h at IC25 concentration. The method, then: as §7
The test system of assay [12] is L. infantum promastigotes. As to the kind of experiment: Ultrastructural alterations by TEM, L. infantum. To be noted: 72 h at IC25 concentration. In kind it is cell-based, Leishmania infantum. On the procedure: as §7

Like-named read-outs stand apart in the source and are kept apart here. Where only a bound is given, the exact number is not on record here.

T1 sequence (P00441 whole entry): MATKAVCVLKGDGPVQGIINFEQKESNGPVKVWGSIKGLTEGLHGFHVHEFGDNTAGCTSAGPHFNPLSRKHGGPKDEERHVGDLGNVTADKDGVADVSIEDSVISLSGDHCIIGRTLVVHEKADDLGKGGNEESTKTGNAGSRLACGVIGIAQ

As a reminder, the IC50 is the midpoint of a concentration-inhibition curve. As for `CN1CCN(C)CCN(Cc2ccccn2)CC1.O=S(=O)([O-])C(F)(F)F.O=S(=O)([O-])C(F)(F)F.[Fe+2]` [Compound 1], the IC50 in assay [1] stood at 18.5 ± 1.6 µM; in assay [2] it was 20.5 ± 1.8 µM; in assay [3] it was 22.3 ± 0.6 µM; in assay [4], 21.3 ± 0.9 µM; in assay [5], 28.6 ± 5.8 µM; in assay [6], 12.5 ± 2.7 µM. The IC50 in assay [7] turned out to be 37.9 ± 4.2 µM.
Take “meglumine antimoniate [Glucantime, reference compound]”: the IC50 is 18 ± 3.1 µM in assay [1]; 24.2 ± 2.6 µM in assay [2]; 25.6 ± 1.6 µM in [3]; 30.4 ± 6.1 µM in assay [4]; 27.3 ± 4.3 µM in [5]; 33.3 ± 3.7 µM in [6]. Moreover, in [7], the IC50 stood at 15.2 ± 1.3 µM. For the same molecule, in assay [8], the “percentage of decrease in infection rate in comparison to the control, L. braziliensis” value is on record as 36%.
Consider `CN(Cc1ccccn1)C1CCCCC1N(C)Cc1ccccn1` (centres unmarked) [Compound 8], for which the IC50 in assay [1] (Leishmania infantum) turned out to be 83 ± 9.9 µM; in assay [2] (Leishmania infantum), 22.5 ± 3.1 µM; in [3] (Leishmania braziliensis), 73.8 ± 3.6 µM; in assay [4] (Leishmania braziliensis), 21.7 ± 1.4 µM; in assay [5] (Leishmania donovani) it was 31.7 ± 2.4 µM; in assay [6] (Leishmania donovani) it was 1.9 ± 0.3 µM. Further, the IC50 in assay [7] (Mus musculus) was 268 ± 16.2 µM; at human CuZn-SOD, more than 250 µM. For the same molecule, in assay [9], the “day at which the decline in the infection rate appeared, L. infantum” value is reported as 0.5 days. In addition, the “ultrastructural alterations of L. braziliensis promastigotes (TEM)” value in assay [10] was “round and lacked in ribosomes”. In [11], the “ultrastructural alterations of L. donovani promastigotes (TEM)” value was “expanded and disperse Golgi apparatus”. For the same molecule, the “ultrastructural alterations of L. infantum promastigotes (TEM)” value in assay [12] is given as “most destructive compounds”.
In the case of “[Fe^II2(TACN2)(CH3CN)6](ClO4)4 [Compound 2]”, the IC50 was 52.6 ± 3.1 µM in assay [1]; 57.5 ± 2.6 µM in assay [2]; 37.2 ± 1.9 µM in [3]; 12.5 ± 1.5 µM in [4]; 19.7 ± 1.7 µM in [5]; 16.3 ± 2.5 µM in [6]. Moreover, the IC50 in assay [7] came to 106 ± 8.8 µM.
On to `CN1CCN(C)CCN(CCN2CCN(C)CCN(C)CC2)CC1` [Compound 11, TACN2], for which the half-inhibitory concentration (IC50) in [1] (Leishmania infantum) was 87.5 ± 5.1 µM; in assay [2] (Leishmania infantum), 34.6 ± 2.5 µM; in assay [3] (Leishmania braziliensis) it was 60.6 ± 3.8 µM; in [4] (Leishmania braziliensis), 30.4 ± 1.3 µM; in assay [5] (Leishmania donovani), 29.5 ± 4.1 µM; in assay [6] (Leishmania donovani) it was 19.8 ± 2.6 µM. In [7] (Mus musculus), the IC50 turned out to be 75.1 ± 4.7 µM.
Turning to `c1ccc(CN2CCN(Cc3ccccn3)CCN(Cc3ccccn3)CC2)nc1` [Compound 10], the IC50 in assay [1] (Leishmania infantum) turned out to be 2.6 ± 0.7 µM; in assay [2] (Leishmania infantum) it was 10.4 ± 0.1 µM; in assay [3] (Leishmania braziliensis), 5.5 ± 0.8 µM; in assay [4] (Leishmania braziliensis), 11.9 ± 0.8 µM; in assay [5] (Leishmania donovani) it was 18.6 ± 0.9 µM; in [6] (Leishmania donovani) it was 11.6 ± 3.3 µM. Besides, the 50% inhibitory concentration (IC50) was 126 ± 7.1 µM in [7] (Mus musculus) and more than 300 µM at human CuZn-SOD. Moreover, the “ultrastructural alterations of L. braziliensis promastigotes (TEM)” value in assay [10] is “shrunken or dehydrated”. Also, the “ultrastructural alterations of L. donovani promastigotes (TEM)” value in assay [11] was “most lethal end result”. For the same molecule, in [12], the “ultrastructural alterations of L. infantum promastigotes (TEM)” value was “most destructive compounds”.
As for `CN1CCN(C)CCN(Cc2ccccn2)CC1` [Compound 9], the IC50 in assay [1] (Leishmania infantum) stood at 71.7 ± 10 µM; in [2] (Leishmania infantum) it was 33.4 ± 3.2 µM; in assay [3] (Leishmania braziliensis) it was 53.2 ± 3.6 µM; in assay [4] (Leishmania braziliensis), 30.7 ± 2.5 µM; in [5] (Leishmania donovani) it was 29.5 ± 3.6 µM; in assay [6] (Leishmania donovani) it was 14.5 ± 2.7 µM. Also, the IC50 in [7] (Mus musculus) was found to be 100 ± 4.8 µM.
